# Assay results published in US11492348B2, “Tri-substituted aryl and heteroaryl derivatives as modulators of PI3-kinase and autophagy pathways” (Neuropore Therapies, Inc., priority 2018, dated 2022).
# Target: PI3Kα (Homo sapiens (Human), UniProt P42336)
# Assay: Inhibition of PI3Kα (ADP-Glo kinase activity assay, ATP to ADP conversion)
# Type: biochemical
# Details: 25 μM PIP2:PS, 60 μM ATP, 30 min reaction, luminescence
# Procedure: Quantification of ATP to ADP conversion as a measure of PI3Kα activity. Active PI3Kα (Life Technologies), in the presence or absence of PI3Kα inhibitor, was reacted with PIP2:PS (Life Technologies), a substrate specifically optimized for use with Class I PI3 kinases, and ultrapure ATP (Promega). The conversion of ATP to ADP by PI3Kα was measured as luminescence signal via Promega ADP-Glo kinase activity assay. Assay was validated using published PI3Kα inhibitors LY294002, PI-103, BYL719, GDC0198 and also DMSO vehicle control.
# Compounds were prepared at 100× final concentration as a 12-point, 1:3 serial-dilution in DMSO series, with DMSO control as 12th point. Compound was then diluted in (25 mM HEPES pH 7.5, 1 mM EGTA, 0.3% CHAPS) prior to addition to PI3Kα. Active PI3Kα diluted to 0.24 ng/μL (1.1 nM) in (50 mM HEPES pH 7.5, 6 mM MgCl2, 1 mM EGTA, 200 mM NaCl, 0.03% CHAPS, 8 mM DTT) was incubated with compound for 0 hr and 3 hr prior to the start of the reaction. 25 μM PIP2:PS and 60 μM ATP were diluted from stock in (25 mM HEPES pH 7.5, 1 mM EGTA, 0.3% CHAPS) and added to initiate the PI3Kα reaction. Reaction time was 30 minutes. ATP to ADP conversion was measured in Luminescence Counts on DTX880 Plate Reader (Beckman Coulter). Compound IC50s were reported using GraphPad Prism software. Analytical method was non-linear regression, 4-parameter curve fit with bottom fit to validated PI3Kα inhibitor reference controls and no top fit (floating top).
# Chain of PI3Kα (P42336 whole entry): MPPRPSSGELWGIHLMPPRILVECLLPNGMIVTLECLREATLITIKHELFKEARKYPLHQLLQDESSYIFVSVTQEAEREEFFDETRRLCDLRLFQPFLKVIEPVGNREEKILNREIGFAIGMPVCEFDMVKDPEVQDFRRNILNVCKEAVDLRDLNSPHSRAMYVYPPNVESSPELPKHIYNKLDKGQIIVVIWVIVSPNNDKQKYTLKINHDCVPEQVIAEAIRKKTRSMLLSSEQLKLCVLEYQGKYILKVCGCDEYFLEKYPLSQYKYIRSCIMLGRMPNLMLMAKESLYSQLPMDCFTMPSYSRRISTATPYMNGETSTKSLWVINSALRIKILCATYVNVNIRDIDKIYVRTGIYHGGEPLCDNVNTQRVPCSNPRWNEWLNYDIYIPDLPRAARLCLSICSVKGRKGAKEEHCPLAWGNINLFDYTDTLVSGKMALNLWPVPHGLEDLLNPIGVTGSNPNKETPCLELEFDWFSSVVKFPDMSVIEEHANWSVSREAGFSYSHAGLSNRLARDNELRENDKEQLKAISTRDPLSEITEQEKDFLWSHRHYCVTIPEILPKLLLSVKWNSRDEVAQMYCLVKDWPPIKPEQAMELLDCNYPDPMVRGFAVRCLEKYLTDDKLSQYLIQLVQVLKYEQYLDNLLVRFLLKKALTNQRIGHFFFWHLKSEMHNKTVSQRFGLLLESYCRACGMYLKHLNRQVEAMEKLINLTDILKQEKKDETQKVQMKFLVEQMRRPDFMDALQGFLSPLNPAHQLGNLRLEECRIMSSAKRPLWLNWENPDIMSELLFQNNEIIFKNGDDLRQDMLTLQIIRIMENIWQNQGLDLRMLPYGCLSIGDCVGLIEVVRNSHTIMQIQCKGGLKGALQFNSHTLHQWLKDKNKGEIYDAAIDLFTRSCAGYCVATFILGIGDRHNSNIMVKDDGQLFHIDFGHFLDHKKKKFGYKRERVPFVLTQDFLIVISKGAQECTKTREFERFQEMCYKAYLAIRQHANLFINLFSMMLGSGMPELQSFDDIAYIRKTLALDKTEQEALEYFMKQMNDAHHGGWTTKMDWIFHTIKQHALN
# Chain of PI3Kα (P27986 whole entry partner): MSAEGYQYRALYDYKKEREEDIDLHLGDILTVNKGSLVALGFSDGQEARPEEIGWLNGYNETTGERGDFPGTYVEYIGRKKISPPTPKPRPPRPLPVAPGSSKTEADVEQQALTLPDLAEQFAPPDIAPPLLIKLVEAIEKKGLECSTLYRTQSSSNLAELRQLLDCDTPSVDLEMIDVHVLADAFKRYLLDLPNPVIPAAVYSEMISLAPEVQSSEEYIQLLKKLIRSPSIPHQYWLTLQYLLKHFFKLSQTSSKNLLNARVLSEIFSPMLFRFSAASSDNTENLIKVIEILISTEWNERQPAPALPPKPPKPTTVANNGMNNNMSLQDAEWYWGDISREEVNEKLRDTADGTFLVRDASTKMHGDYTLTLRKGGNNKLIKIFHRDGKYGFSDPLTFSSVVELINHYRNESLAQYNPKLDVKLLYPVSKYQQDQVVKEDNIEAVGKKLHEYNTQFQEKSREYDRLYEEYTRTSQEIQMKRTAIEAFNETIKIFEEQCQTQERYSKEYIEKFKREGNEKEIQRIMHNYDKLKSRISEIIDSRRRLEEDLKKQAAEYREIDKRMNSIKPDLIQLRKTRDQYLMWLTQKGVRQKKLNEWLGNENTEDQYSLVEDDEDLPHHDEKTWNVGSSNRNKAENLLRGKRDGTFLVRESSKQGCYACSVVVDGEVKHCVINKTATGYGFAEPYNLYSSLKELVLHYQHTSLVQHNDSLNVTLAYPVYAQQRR
row,Compound,PI3Ka IC50 [nM]
1,"CC1CN(c2cc(S(=O)(=O)c3ccccc3)cc(-c3cnc(N)nc3)n2)CC(C)O1 (stereo not shown) [Compound 150, 5-(6-(2,6-dimethylmorpholino)-4-(phenylsulfonyl)pyridin-2-yl)pyrimidin-2-amine]",450
2,"CC(=O)Nc1ncc(-c2cc(S(=O)(=O)c3ccccc3)cc(N3CCOCC3)n2)cn1 [Compound 145, N-(5-(6-morpholino-4-(phenylsulfonyl)pyridin-2-yl)pyrimidin-2-yl)acetamide]",390
3,"Nc1ncc(-c2cc(S(=O)(=O)C3CCOCC3)cc(N3CCOCC3)n2)cn1 [Compound 148, 5-(6-morpholino-4-((tetrahydro-2H-pyran-4-yl)sulfonyl)pyridin-2-yl)pyrimidin-2-amine]",13
4,"O=S(=O)(Cc1ccc(F)cc1)c1cc(-c2cccc(OC(F)(F)F)c2)cc(N2CCOCC2)c1 [Compound 46, 4-(5-((4-fluorobenzyl)sulfonyl)-3′-(trifluoromethoxy)-[1,1′-biphenyl]-3-yl)morpholine]",19000
5,"CNc1ncc(-c2cc(N3CCOCC3)cc(S(=O)(=O)c3ccccc3)c2)cn1 [Compound 16, N-methyl-5-(3-morpholino-5-(phenylsulfonyl)phenyl)pyrimidin-2-amine]",1500
6,"O=S(=O)(c1ccccc1)c1cc(-c2cnc(NC3CC3)nc2)nc(N2CCOCC2)c1 [Compound 146, N-cyclopropyl-5-(6-morpholino-4-(phenylsulfonyl)pyridin-2-yl)pyrimidin-2-amine]",370
7,"Nc1ncc(-c2cc(N3CCOCC3)cc(S(=O)(=O)c3ccc(N4CCOCC4)cc3)c2)cn1 [Compound 36, 5-(3-morpholino-5-((4-morpholinophenyl)sulfonyl)phenyl)pyrimidin-2-amine]",1100
8,"Nc1ncc(-c2cc(N3CCOCC3)cc(S(=O)(=O)CC3CCC(F)(F)CC3)c2)cn1 [Compound 64, 5-(3-(((4,4-difluorocyclohexyl)methyl)sulfonyl)-5-C21H26F2N4O3Smorpholinophenyl) pyrimidin-2-amine]",1100
9,"Nc1ccc(-c2cc(N3CCOCC3)cc(S(=O)(=O)Cc3ccc(F)cc3F)c2)nc1 [Compound 98, -(3-((2,4-difluorobenzyl)sulfonyl)-5-morpholinophenyl)pyridin-3-amine]",12000
10,"Nc1ncc(-c2cc(S(=O)(=O)C3COc4ccccc43)cc(N3CCOCC3)n2)cn1 (stereo not shown) [Compound 147, 5-(4-((2,3-dihydrobenzofuran-3-yl)sulfonyl)-6-morpholinopyridin-2-yl)pyrimidin-2-amine]",7
11,"Nc1ncc(-c2cc(N3CCOCC3)cc(S(=O)(=O)C3CN(Cc4ccc(F)cc4)C3)c2)cn1 [Compound 80, 5-(3-((1-(4-fluorobenzyl)azetidin-3-yl)sulfonyl)-5-morpholinophenyl)pyrimidin-2-amine]",660
12,"Nc1ncc(-c2cc(C3CCOc4ccccc43)cc(N3CCOCC3)n2)cn1 (stereo not shown) [Compound 141, 5-(4-(chroman-4-yl)-6-morpholinopyridin-2-yl)pyrimidin-2-amine]",62
13,"CC(C)(C)C(=O)N1CC(S(=O)(=O)c2cc(-c3cnc(N)nc3)cc(N3CCOCC3)c2)C1 [Compound 86, 1-(3-((3-(2-aminopyrimidin-5-yl)-5-morpholinophenyl)sulfonyl)azetidin-1-yl)-2,2-dimethylpropan-1-one]",580
14,"Nc1ncc(-c2cc(S(=O)(=O)c3ccccc3)cc(N3CC4CCC(C3)O4)n2)cn1 [Compound 151, 5-(6-(8-oxa-3-azabicyclo[3.2.1]octan-3-yl)-4-(phenylsulfonyl)pyridin-2-yl)pyrimidin-2-amine]",830
15,"O=C1COc2cc(-c3cc(N4CCOCC4)cc(S(=O)(=O)Cc4ccc(F)cc4)c3)ccc2N1 [Compound 42, 7-(3-((4-fluorobenzyl)sulfonyl)-5-morpholinophenyl)-2H-benzo[b][1,4]oxazin-3(4H)-one]",4700
16,"O=S(=O)(Cc1ccccc1)c1cc(-c2cnc(NC3CC3)nc2)cc(N2CCOCC2)c1 [Compound 104, 5-(3-(benzylsulfonyl)-5-morpholinophenyl)-N-cyclopropylpyrimidin-2-amine]",1300

row,Compound,PI3Ka IC50 [nM]
1,"Cc1nc(N)ncc1-c1cc(N2CCOCC2)cc(S(=O)(=O)[C@@H]2CCOC2)c1 [Compound 121, (R)-4-methyl-5-(3-morpholino-5-((tetrahydrofuran-3-yl)sulfonyl)phenyl)pyrimidin-2-amine]",840
2,"C[C@@H]1CC(S(=O)(=O)c2cc(-c3cnc(N)nc3)cc(N3CCOCC3)c2)C[C@H](C)O1 (stereo partly drawn) [Compound 85, 5-(3-(((2R,6S)-2,6-dimethyltetrahydro-2H-pyran-4-yl)sulfonyl)-5-morpholinophenyl)pyrimidin-2-amine]",1000
3,"Nc1ccc(-c2cc(N3CCOCC3)cc(S(=O)(=O)[C@@H]3CCOC3)c2)c(C(F)(F)F)n1 [Compound 105, (R)-5-(3-morpholino-5-((tetrahydrofuran-3-yl)sulfonyl)phenyl)-6-(trifluoromethyl)pyridin-2-amine]",1700
4,"Nc1ncc(-c2cc(N3CCOCC3)cc(S(=O)(=O)C3CNC3)c2)cn1 [Compound 61, 5-(3-(azetidin-3-ylsulfonyl)-5-morpholinophenyl)pyrimidin-2-amine]",500
5,"Nc1ncc(-c2cc(S(=O)(=O)[C@H]3CCOC3)cc(N3CCOCC3)n2)cn1 [Compound 142a, (S)-5-(6-morpholino-4-((tetrahydrofuran-3-yl)sulfonyl)pyridin-2-yl)pyrimidin-2-amine]",5.7
6,"Nc1ncc(-c2cc(S(=O)(=O)[C@@H]3CCOC3)cc(N3CCOCC3)n2)cn1 [Compound 142b, (R)-5-(6-morpholino-4-((tetrahydrofuran-3-yl)sulfonyl)pyridin-2-yl)pyrimidin-2-amine]",6.8
7,"Nc1ncc(-c2cc(S(=O)(=O)C3CCOc4ccccc43)cc(N3CCOCC3)n2)cn1 (racemic) [Compound 143, 5-(4-(chroman-4-ylsulfonyl)-6-morpholinopyridin-2-yl)pyrimidin-2-amine]",1.7
8,"CC(C)(O)CNc1ccc(CS(=O)(=O)c2cc(-c3cnc(N)nc3)cc(N3CCOCC3)c2)cc1 [Compound 84, 1-((4-(((3-(2-aminopyrimidin-5-yl)-5-morpholinophenyl)sulfonyl)methyl)phenyl)amino)-2-methylpropan-2-ol]",600
9,"COc1cncc(-c2cc(N3CCOCC3)cc(S(=O)(=O)Cc3ccc(F)cc3)c2)c1 [Compound 55, 4-(3-((4-fluorobenzyl)sulfonyl)-5-(5-methoxypyridin-3-yl)phenyl)morpholine]",12000
10,"CNc1ncc(-c2cc(N3CCOCC3)cc(S(=O)(=O)Cc3ccccc3)c2)cn1 [Compound 31, 5-(3-(benzylsulfonyl)-5-morpholinophenyl)-N-methylpyrimidin-2-amine]",660
11,"Cc1cn2cc(-c3cc(N4CCOCC4)cc(S(=O)(=O)Cc4ccccc4)c3)cnc2n1 [Compound 34, 4-(3-(benzylsulfonyl)-5-(2-methylimidazo[1,2-a]pyrimidin-6-yl)phenyl)morpholine]",13000
12,"Nc1ncc(-c2cc(N3CCOCC3)cc(S(=O)(=O)c3cccc(C(F)(F)F)c3)c2)cn1 [Compound 7, 5-(3-morpholino-5-((3-(trifluoromethyl)phenyl)sulfonyl)phenyl) pyrimidin-2-amine]",1800
13,"COc1ccc(-c2cc(N3CCOCC3)cc(S(=O)(=O)Cc3ccc(F)cc3)c2)cc1N [Compound 43, 3′-((4-fluorobenzyl)sulfonyl)-4-methoxy-5′-morpholino-[1,1′-biphenyl]-3-amine]",11000
14,"Nc1cnc(-c2cc(N3CCOCC3)cc(S(=O)(=O)Cc3ccccc3)c2)cn1 [Compound 73, 5-(3-(benzylsulfonyl)-5-morpholinophenyl)pyrazin-2-amine]",1500
15,"CN(C)c1ncc(-c2cc(N3CCOCC3)cc(S(=O)(=O)c3ccccc3)c2)cn1 [Compound 4, N,N-dimethyl-5-(3-morpholino-5-(phenylsulfonyl)phenyl)pyrimidin-2-amine]",11000
16,"Nc1cnc(-c2cc(N3CCOCC3)cc(S(=O)(=O)C3CCOC3)c2)cn1 (stereo not shown) [Compound 74, 5-(3-morpholino-5-((tetrahydrofuran-3-yl)sulfonyl)phenyl)pyrazin-2-amine]",1000

# Same assay, conditions: 25 μM PIP2:PS, 60 μM ATP, 30 min reaction, luminescence; read-out: PI3Ka IC50
row,Compound,IC50 [nM]
1,"Nc1ncc(-c2cc(S(=O)(=O)C3CCOc4ccccc43)cc(N3CCOCC3)n2)cn1 (single isomer, unassigned; (-)) [(−) 143, 5-(4-(chroman-4-ylsulfonyl)-6-morpholinopyridin-2-yl)pyrimidin-2-amine]",1
2,"Nc1ncc(-c2cc(S(=O)(=O)C3CCOc4ccccc43)cc(N3CCOCC3)n2)cn1 (single isomer, unassigned; (+)) [(+) 143, 5-(4-(chroman-4-ylsulfonyl)-6-morpholinopyridin-2-yl)pyrimidin-2-amine]",4.5
